{"source": "patent US20100130408A1", "about": "“USE OF MODIFIED CYCLOSPORINS” (priority 2006, published 2010)", "key": {"HSCs": {"tested_on": "HSCs", "assay": "Type 1 collagen assay (ELISA of culture media)", "assay_type": "cell-based", "conditions": "rat HSCs", "method": "A. In vitro Cell culture: HSCs are isolated from the liver of male Wistar rats by sequential in situ perfusion with collagenase and digestion with pronase, followed by centrifugation in a double-layered (17%/11.5%) metrizamide solution (Sigma. Chemical, St. Louis, Mo.), as described in Kato, et al, J. Hepatol (1999) 31:91-99. HSCs are cultured in Dulbecco's modified Eagle's medium (DMEM) with 10% fetal calf serum (FCS). Experiments are performed on cells between the third and fourth serial passages. To measure […] matrix metalloproteinase (MMP-1) and tissue inhibitor of matrix metalloproteinase (TIMP-1), TWNT-4 cells which is a human cell line derived from HSCs as produced according to Shibata, et al, Cell Transplant (2003) 12:499-507 is used for evaluating the effects of Fasudil on MMP-1 and TIMP-1. TWNT-4 cells are cultured in DMEM with 10% FCS as reported previously (Id). NIM811 (Novartis Pharma AG, Basel, Switzerland) is dissolved in DMEM and added to cultures. Cell viability of HSCs is more than 90% under serum-free conditions for 24 h in the presence of 2 μM NIM811.\nType 1 collagen assay: Cultured HSCs are incubated in serum-free medium in the presence or absence of NIM811 for 24 h. Type I collagen is determined in culture media by ELISA as described in Iwamoto, et al, J. Hepatol (2000) 32:762-770. […]"}, "TWNT-4 cells": {"tested_on": "TWNT-4 cells", "assay": "gene expression using real time RT-PCR", "assay_type": "cell-based, human", "conditions": "0.5 μM", "method": "Analysis of gene expression using real time RT-PCR: Total RNA is prepared from TWNT-4 cells with Trizol reagent (Invitrogen, Carlsbad, Calif., USA), which are maintained in either the presence or absence of NIM811 in 10% FCS for 24 h. cDNA is synthesized from […] RNA with GeneAmp™ RNA PCR (Applied Biosystems, Branchburg, N.J., USA) using random hexamers. Real-time PCR is performed using LightCycler-FastStart DNA Master SYBR Green 1 (Roche, Tokyo, Japan) as described in Nakamuta, et al, Int J. Mol Med (2005) 16(4):631-635. A reaction mixture (20 μl) is used containing LightCycler-FastStart DNA Master SYBR Green 1, 4 mM MgCl2, 0.5 μM of the upstream and downstream PCR primers, and […] of the first strand cDNA as a template. To control for variations in the reactions, all PCRs are normalized against glyceraldehyde-3-phosphate dehydrogenase (GAPDH) expression. The primers which may be used are as follows: 5′-[…]-3′ (forward primer) (SEQ ID NO. 1) and 5′-[…]-3′ (reverse primer)(SEQ ID NO. 2) for human type I collagen a1 chain (GenBank™ accession number NM-000088) (21); 5′-[…]-3′ (forward primer)(SEQ ID NO. 3) and 5′-[…]-3′ (reverse primer) for human a-SMA (GenBank™ accession number […]); 5′-[…]-3′ (forward primer) and 5′-[…]-3′ (reverse primer) for MMP-1 (GenBank™ accession number NM002421); 5′-[…]-3′ (forward primer) and 5′-[…]-3′ (reverse primer)(SEQ ID NO. 4) for TIMP-1 (GenBank™ accession number NM003254); 5′-[…]-3′ (forward primer)(SEQ ID NO. 5) and 5′-[…]-3′ (reverse primer)(SEQ ID NO. 6) for Smad7 (Quan, et al, J Biol Chem (2005) 80:8079-8085); 5′-[…]-3′ (forward primer)(SEQ ID NO. 7) and 5′-[…]-3′ (reverse primer)(SEQ ID NO. 8) for transforming growth factor □ receptor I (TGFβRI) (Woszcyk et al, Med Sci Monit (2004) 10:C33-C37))."}}}
{"compound": "C/C=C/C[C@@H](C)[C@@H](O)[C@H]1C(=O)N[C@@H](CC)C(=O)N(C)CC(=O)N(C)[C@@H]([C@@H](C)CC)C(=O)N[C@@H](C(C)C)C(=O)N(C)[C@@H](CC(C)C)C(=O)N[C@@H](C)C(=O)N[C@H](C)C(=O)N(C)[C@@H](CC(C)C)C(=O)N(C)[C@@H](CC(C)C)C(=O)N(C)[C@@H](C(C)C)C(=O)N1C", "note": "[NIM811]", "values": [{"measurement": "reduction of collagen accumulation", "setting": "HSCs; 0.5 μM", "value": "approximately 50%"}, {"measurement": "suppression of collagen accumulation", "setting": "HSCs; increasing concentrations, 24 h", "value": "concentration-dependent suppression of collagen accumulation"}, {"measurement": "enhancement of expression of Smad7", "setting": "TWNT-4 cells", "value": "~2", "unit": "fold"}, {"measurement": "expression of TIMP-1 (mRNA)", "setting": "TWNT-4 cells", "value": "did not change"}, {"measurement": "increase of expression of MMP-1 (mRNA)", "setting": "TWNT-4 cells", "value": "~2", "unit": "fold"}, {"measurement": "reduction of expression of type I collagen (mRNA)", "setting": "TWNT-4 cells", "value": "roughly 30%"}, {"measurement": "suppression of TGFβRI expression", "setting": "TWNT-4 cells", "value": "~50", "unit": "%"}]}
